The target of the experiment is 4-hydroxyphenylpyruvate dioxygenase (Sus scrofa, UniProt Q02110). The experiment can be described thus: In vitro inhibitory concentration required against 4-hydroxyphenylpyruvate dioxygenase (4-HPPD) taken from pig liver.
4-hydroxyphenylpyruvate dioxygenase, sequence (Q02110 whole entry): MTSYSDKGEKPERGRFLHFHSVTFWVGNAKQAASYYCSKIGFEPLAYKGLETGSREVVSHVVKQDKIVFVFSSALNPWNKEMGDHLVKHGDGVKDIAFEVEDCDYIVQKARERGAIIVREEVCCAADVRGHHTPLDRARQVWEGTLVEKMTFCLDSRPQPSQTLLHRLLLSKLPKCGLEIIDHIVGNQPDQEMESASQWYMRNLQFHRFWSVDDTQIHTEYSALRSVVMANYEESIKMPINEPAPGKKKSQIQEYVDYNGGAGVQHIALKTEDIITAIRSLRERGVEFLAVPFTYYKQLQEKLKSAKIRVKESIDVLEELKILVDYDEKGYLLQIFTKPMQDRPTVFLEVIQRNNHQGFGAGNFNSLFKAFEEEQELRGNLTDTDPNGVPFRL

A word on the IC50: it is the concentration needed to halve the response being measured. Lower therefore signals inhibition by little substance. `CCOC(=O)C1CC(=O)C(C(=O)C2CC2)=C(NC(=O)C2CC2)C1` (stereo unspecified) gave an IC50 of 10 µM. In other words, the double-digit micromolar range.
